Data set [1] concerns secreted PCSK9. The experiment in a line: PCSK9 secretion in culture medium, ELISA on HepG2 supernatants. The data set is classed as cell-based, human. Particulars: for IC50: HepG2, Table S2, ELISA, non-cytotoxic concentrations, read-out: IC50 ± SD on PCSK9 secreted by HepG2; for decrease of secreted PCSK9 vs. basal: given as decrease. The method, then:
Next, the levels of secreted PCSK9 were quantified by ELISA assay (Figure 5) only on supernatants collected from cells treated with noncytotoxic concentrations of each compound, as reported in Table 1. Simvastatin (Simva) at 20 and 40 μM and berberine (BBR) at 10 μM were included as controls. As described in the literature, simvastatin induces PCSK9 expression as a compensatory mechanism in response to its cholesterol‐lowering effects, being a pharmacological competitor for HMG‐CoA reductase, the rate‐limiting enzyme of the cholesterol biosynthetic pathway.^[ [29] ^] In contrast, BBR, a natural compound, reduces the expression of PCSK9 levels through transcriptional inhibition, thus increasing the LDLR availability on plasma membrane.^[ [30] ^] As additional and distinct mechanism to the latter, BBR is also able to stabilize the transcript of LDLR, thus increasing its half‐life.^[ [31] ^] As expected, cells stimulated with simvastatin released more PCSK9 into the culture medium compared to unstimulated cells, with a statistically significant concentration‐dependent effect (+73% at 20 μM, p < 0.01; +200% at 40 μM, p < 0.0001), while BBR at 10 μM decreased PCSK9 levels in the medium more than 50% (p < 0.0001 vs. basal) (Figure 5).^[ [32] ^] The amount of PCSK9 secreted into the culture media was measured with an appropriate ELISA kit (R&D System, DY3888 and DY008B2) on the supernatants collected during the MTT assay. Every experimental condition was run in duplicate and the average PCSK9 secretion and standard deviation was calculated. A 4PL regression analysis was used to interpolate unknowns with the standard curve using GraphPad Prism v10.2, according to manufacturers’ instructions. The data were normalized onto the corresponding cell viability, and IC50 was then calculated using GraphPad Prism v10.2.
For orientation: ELISA stands for enzyme-linked immunosorbent assay.

Data set [2] relates to circulating PCSK9. Also noted: method as in PMID 38160616. Particulars: mice; cited from earlier work.
Details of data set [3]: method as in PMID 38160616. Particulars: seven days of daily subcutaneous administration; cited from earlier work.
The test system of data set [4] is secreted PCSK9. Also noted: method as in PMID 38160616. Particulars: 5 µM; cited from earlier work.
The subject of data set [5] is LDLR protein. Put plainly: Western blot of LDLR protein levels in HepG2 cells. It counts as cell-based, human. Particulars: HepG2, 24 h. The method, then:
(§1) The third step of our functional assay was focused on the most promising compounds from the previous step (6b and 7), looking at the PCSK9 and LDLR protein expressions in HepG2 cells treated with increasing concentrations of the compounds (2.5–5–10 µM). This analysis, conducted in comparison with 5c using a Western blot assay, aimed to provide a more comprehensive understanding of the intracellular activity and efficacy of these novel PCSK9i , further supporting their potential for preclinical development. […] Importantly, LDLR protein levels were increased by compound 7 only at 10 µM (+39%, p < 0.01, Figure 6B) as compared to basal condition.
(§2) HepG2 cells were seeded at the cellular density of 500,000 cells/well in a 6‐well tray, in 2 mL of complete medium, and incubated as described above. The day after, treatments were prepared in starving medium. The cells were washed once with PBS and then incubated with media containing treatments. […] Total protein content was measured through bicinchoninic acid (BCA) assay (Euroclone, EMP014250), according to manufacturer's instructions. […] Immunobands were detected with Imager Alliance Q9 ATOM Supreme by UVITEC (Cambridge, UK) after 5 min of membranes incubation in the dark with ECL Star solution (EuroClone, EMP001005). Every experimental condition was run in triplicate and the average cell viability and standard deviation was calculated.
For orientation: In western blotting, separated proteins are transferred to a membrane and probed.

The subject of data set [6] is PCSK9 protein. Put plainly: Western blot of PCSK9 protein levels in HepG2 cells. The data set is classed as cell-based, human. Particulars: 10 µM, HepG2, 24 h. On the procedure:
as §1, §2

Setting [7] is: Homo sapiens, 10 μM, HepG2, 24 h, read-out: secreted PCSK9 change vs. basal.

SMILES strings stand for the structures.

The text below walks through data of publication PMC12812009, “Optimization of 4‐Amino‐2‐Pyridone Inhibitors of Proprotein Convertase Subtilisin/Kexin Type 9: Integrating Structure–Activity and Structure–Metabolism Relationships” (Chemmedchem, 2025).

What is called IC50 is the concentration that inhibits the measured activity by half. `Cc1cc(NCc2ccc(C(F)(F)F)cc2)cc(=O)n1Cc1ccc(C(F)(F)F)cc1` [Compound 5c]: in data set [1] (Homo sapiens), the IC50 turned out to be 1700 ± 670 nM. For the same compound, the “circulating PCSK9 levels in vivo (in words)” value in data set [2] is “did not demonstrate a significant reduction in circulating PCSK9 levels”. In data set [3], the “tolerability in mice (in words)” value is given as “well tolerated”. In addition, the “PCSK9 secretion from HepG2 cells (in words)” value in data set [4] is “effectively reduced PCSK9 secretion”.
As to `Cc1cc(NCc2ccc(C(F)(F)F)cc2)c(Br)c(=O)n1Cc1ccc(C(F)(F)F)cc1` [Compound 6b, 3‐Bromo‐6‐Methyl‐1‐(4‐(Trifluoromethyl)Benzyl)‐4‐((4‐(Trifluoromethyl)Benzyl)Amino)pyridin‐2(1H)‐One], in data set [5] (2.5–5–10 µM), the “LDLR expression (in words)” value is on record as “did not modulate its expression at all concentrations tested”. For the same compound, the IC50 in data set [1] (Homo sapiens) was 2600 ± 1610 nM. The inhibition at 5 µM in data set [1] (Homo sapiens, 5 μM, HepG2, 24 h, read-out: secreted PCSK9 change vs. basal) was 75%. The inhibition at 10 µM in data set [1] (setting [7]) was determined as 90%. Also, the “maximal reduction of PCSK9 protein levels vs. basal” value in data set [6] came to 93%.
For the compound `Cc1cc2c(sc(=N)n2Cc2ccc(C(F)(F)F)cc2)c(=O)n1Cc1ccc(C(F)(F)F)cc1` [Compound 7, 2‐Imino‐6‐Methyl‐1,5‐Bis(4‐(Trifluoromethyl)benzyl)‐1,2‐Dihydrothiazolo[5,4‐c]pyridin‐4(5H)‐One], in data set [5] (10 µM), the “LDLR protein level change vs. basal” value is on record as “+39%”. The “decrease of secreted PCSK9 vs. basal” value in data set [1] (10 μM, HepG2, 24 h) amounted to 74%; in data set [1] (25 μM, HepG2, 24 h), 90%. Further, the IC50 in data set [1] (Homo sapiens) was 4100 ± 360 nM. Also, the inhibition at 10 µM in data set [1] (setting [7]) was determined as 74%. Moreover, the “PCSK9 protein level change vs. basal” value in data set [6] was −42%.
